The text below walks through data of the supplement of paper PMC10307832.

Common to all, as to assay: relative viability (nuclei count vs DMSO), 5 days (fraction); higher = more cells survive
Compound in assay [1]: CN1CCN(CC1)C2=CC(=C(C=C2)NC3=NC(=C(S3)C(=O)C4=C(C=CC=C4Cl)Cl)N)OC [XMD14-99] + Cc1nc(Nc2ncc(C(=O)Nc3c(C)cccc3Cl)s2)cc(N2CCN(CCO)CC2)n1 [Dasatinib] (partner 0.075 µM)
The gist of the method: (§1)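 Cells from lung cancer lines were seeded into 1536-well plates and, one day later, dosed by pin tool. Treatments were either a single drug or a fixed dose of an anchor drug with five library-drug doses (not always all listed) in √10 steps. After 5 days, nuclei were stained in a one-step fixation (final 0.05% Triton X-100, 1% formaldehyde, 1 ug/ml Hoechst) and counted on 4× images, and relative viability is the treated-to-vehicle nuclei ratio, as the median of duplicate plates.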

Compound in assay [2]: N[C@@H]1CCCN(c2c(/C=C3\SC(=O)NC3=O)cccc2-c2ccccc2)C1 [AZD1208] + CC(=O)Nc1cccc(-n2c(=O)n(C3CC3)c(=O)c3c(Nc4ccc(I)cc4F)n(C)c(=O)c(C)c32)c1 [Trametinib] (partner 0.02 µM)
The gist of the method:
as §1

Compound in assay [3]: N[C@@H]1CCCN(c2c(/C=C3\SC(=O)NC3=O)cccc2-c2ccccc2)C1 [AZD1208] + CC1(C)CCC(c2ccc(Cl)cc2)=C(CN2CCN(c3ccc(C(=O)NS(=O)(=O)c4ccc(N[C@H](CCN5CCOCC5)CSc5ccccc5)c(S(=O)(=O)C(F)(F)F)c4)cc3)CC2)C1 [Navitoclax] (partner 0.5 µM)
The gist of the method:
as §1

Compound in assay [4]: N[C@@H]1CCCN(c2c(/C=C3\SC(=O)NC3=O)cccc2-c2ccccc2)C1 [AZD1208] + COc1cccc2cc(-c3nc([C@H]4CC[C@H](C(=O)O)CC4)n4ncnc(N)c34)[nH]c12 [OSI-027] (partner 0.5 µM)
The gist of the method:
as §1

Turning to UMC-11, the relative viability amounted to 0.441 in assay [1] (first compound 0.08 µM); 0.478 in assay [1] (first compound 0.8 µM); 0.438 in assay [1] (first compound 2.53 µM); 0.344 in assay [1] (first compound 8 µM); 0.498 in assay [2] (first compound 0.08 µM); 0.623 in assay [2] (first compound 0.253 µM). In addition, the relative viability in assay [2] (first compound 0.8 µM) is 0.454; in assay [2] (first compound 2.53 µM), 0.381; in assay [2] (first compound 8 µM), 0.313; in assay [3] (first compound 0.08 µM), 0.272; in assay [3] (first compound 0.253 µM), 0.301; in assay [3] (first compound 0.8 µM) it was 0.251. Besides, the relative viability in assay [3] (first compound 2.53 µM) is 0.236; in assay [3] (first compound 8 µM), 0.195; in assay [4] (first compound 0.08 µM) it was 0.333; in assay [4] (first compound 0.253 µM) it was 0.321; in assay [4] (first compound 0.8 µM), 0.321; in assay [4] (first compound 2.53 µM) it was 0.329. In assay [4] (first compound 8 µM), the relative viability stood at 0.294.
